Measured values: ChEMBL document CHEMBL4177558, “Rapid, microwave-accelerated synthesis and anti-osteoporosis activities evaluation of Morusin scaffolds and Morusignin L scaffolds” (2017)
Active and inactive are the calls of the source. The calls are words filed in the database; no cut-off is given here.

Columns and labels:
[1] = test system: MC3T3-E1; experiment: Induction of osteoblast proliferation in mouse MC3T3-E1 cells assessed as growth rate relative to untreated control at 10^-5 mol/L after 48 hrs by MTT assay; type: functional; conditions: MC3T3-E1, 48 h, read-out: Activity
[2] = test system: MC3T3-E1; experiment: Induction of osteoblast proliferation in mouse MC3T3-E1 cells assessed a growth rate relative to untreated control at 10^-6 mol/L after 48 hrs by MTT assay; type: functional
[3] = test system: MC3T3-E1; experiment: Induction of osteoblast proliferation in mouse MC3T3-E1 cells assessed a growth rate relative to untreated control at 10^-7 mol/L after 48 hrs by MTT assay; type: functional
[4] = test system: MC3T3-E1; experiment: Induction of osteoblast proliferation in mouse MC3T3-E1 cells assessed a growth rate relative to untreated control at 10^-8 mol/L after 48 hrs by MTT assay; type: functional
[5] = test system: Osteoclast; experiment: Inhibition of New Zealand white rabbit bone marrow-derived osteoclast differentiation assessed as reduction in TRAP activity in at 1 x 10^-5 mol/L measured on day 8 post dose by StrACP assay; type: functional, cell-based; conditions: Oryctolagus cuniculus
[6] = test system: Osteoclast; experiment: Inhibition of New Zealand white rabbit bone marrow-derived osteoclast differentiation assessed as reduction in TRAP positive cells at 1 x 10^-5 to 1 x 10^-8 mol/L measured on day 8 post dose by leukocyte acid phosphatase-staining based phase contrast microscopy; type: functional, cell-based; conditions: Oryctolagus cuniculus
[7] = test system: Bone; experiment: Anti-osteoporotic activity in bovine bone assessed as bone resorption of osteoclast at 1 x 10^-5 mol/L after 8 days by toluidine blue staining-based method; type: functional, tissue-based; conditions: Bos taurus; Bone element
[8] = test system: Osteoclast; experiment: Inhibition of New Zealand white rabbit bone marrow-derived osteoclast differentiation assessed as reduction in TRAP activity in at 1 x 10^-6 to 1 x 10^-8 mol/L measured on day 8 post dose by StrACP assay; type: functional, cell-based; conditions: Oryctolagus cuniculus
[9] = test system: Osteoclast; experiment: Anti-osteoporotic activity assessed as osteoclast differentiation in rabbit bone marrow-derived osteoclast at 1 x 10^-5 mol/L after 8 days by TRAP staining-based phase-contrast microscopic method; type: functional, cell-based; conditions: Oryctolagus cuniculus
[10] = test system: Bone; experiment: Anti-osteoporotic activity in bovine bone assessed as bone resorption of osteoclast at 1 x 10^-8 mol/L after 8 days by toluidine blue staining-based method; type: functional, tissue-based; conditions: Bos taurus; Bone element

| Compound | growth at 10 µM [1] [%] | Activity [2] [%] | Activity [3] [%] | Activity [4] | inhibition [5] | inhibition [6] | Activity [7] | inhibition [8] | Activity [9] | Activity [10] |
| --- | --- | --- | --- | --- | --- | --- | --- | --- | --- | --- |
| CC(=O)CCc1c(-c2ccccc2Cl)oc2c3c(cc(O)c2c1=O)OC(C)(C)C=C3 | 18.3 | 6.01 | 5.13 | 0.06% |  |  |  |  |  |  |
| CC(=O)CCc1c(-c2ccccc2Br)oc2cc3c(c(O)c2c1=O)C=CC(C)(C)O3 | 10.6 | 0.88 | 0.79 | 0.38% |  |  |  |  |  |  |
| CC(O)CCc1c(-c2ccccc2Br)oc2cc3c(c(O)c2c1=O)C=CC(C)(C)O3 (centres undefined) | 10.5 | 2.8 | 2.87 | -0.52% |  |  |  |  |  |  |
| CC(C)(O)CCc1c(-c2ccc(O)cc2O)oc2cc3c(c(O)c2c1=O)C=CC(C)(C)O3 | -4.81 | 6.69 | 5.88 | 2.26% | Active | Active | Active | inactive |  |  |
| CC(=O)CCc1c(-c2ccccc2Br)oc2c3c(cc(O)c2c1=O)OC(C)(C)C=C3 | 12.8 | 0.83 | 0.46 | 2.42% |  |  |  |  |  |  |
| CC(C)=CCc1c(-c2ccc(O)cc2O)oc2c3c(cc(O)c2c1=O)OC(C)(C)C=C3 [MORUSIN] | 16 | 9.57 | 3.88 | 7.13% |  |  |  |  |  |  |
| CC1(C)C=Cc2c(cc(O)c3c(=O)c(CCC(C)(O)c4ccc(F)cc4)c(-c4ccccc4Cl)oc23)O1 (centres undefined) | 15.9 | 6.35 | 6.89 | 6.02% |  |  |  |  |  |  |
| CC(C)(O)CCc1c(-c2ccccc2Cl)oc2cc3c(c(O)c2c1=O)C=CC(C)(C)O3 | 14.3 | 4.61 | 3.74 | 6.39% |  |  |  |  |  |  |
| CC1(C)C=Cc2c(cc3oc(-c4ccccc4Br)c(CCC(C)(O)c4ccc(F)cc4)c(=O)c3c2O)O1 (centres undefined) | -4.88 | 1.49 | 6.25 | 1.91% |  |  |  |  |  |  |
| CC1(C)C=Cc2c(cc(O)c3c(=O)c(CCC(C)(O)c4ccccc4)c(-c4ccccc4Br)oc23)O1 (centres undefined) | 21.7 | 16.65 | 14.74 | 8.56% |  |  | Active |  | Active |  |
| CC(O)CCc1c(-c2ccccc2Cl)oc2cc3c(c(O)c2c1=O)C=CC(C)(C)O3 (centres undefined) | 27.1 | 5.63 | 7.45 | 11.08% |  |  | Active |  | Active |  |
| CC1(C)C=Cc2c(cc3oc(-c4ccccc4Br)c(CCC(C)(O)c4ccccc4)c(=O)c3c2O)O1 (centres undefined) | 12.1 | 17.66 | 6.08 | 10.13% |  |  |  |  |  |  |
| CC(O)CCc1c(-c2ccccc2Br)oc2c3c(cc(O)c2c1=O)OC(C)(C)C=C3 (centres undefined) | 19.5 | 4.94 | 6.7 | 7.02% |  |  |  |  |  |  |
| CC(C)(O)CCc1c(-c2ccccc2Br)oc2cc3c(c(O)c2c1=O)C=CC(C)(C)O3 | 13.4 | 7.7 | 4.54 | 8.54% |  |  | Active |  | Active |  |
| CC(=O)CCc1c(-c2ccccc2Cl)oc2cc3c(c(O)c2c1=O)C=CC(C)(C)O3 | 7.62 | 9 | 9.58 | 0.85% |  |  |  |  |  |  |
| CC1(C)C=Cc2c(cc3oc(-c4ccccc4Cl)c(CCC(C)(O)c4ccc(F)cc4)c(=O)c3c2O)O1 (centres undefined) | 4.88 | 11.03 | 6.45 | 6.83% |  |  |  |  |  |  |
| CC(C)(O)CCc1c(-c2ccccc2Cl)oc2c3c(cc(O)c2c1=O)OC(C)(C)C=C3 | 4.29 | 2.97 | 1.78 | 3.08% |  |  |  |  |  |  |
| CC(O)CCc1c(-c2ccccc2Cl)oc2c3c(cc(O)c2c1=O)OC(C)(C)C=C3 (centres undefined) | 24 | 5.18 | 2.37 | 0.53% |  |  |  |  |  |  |
| CC(C)(O)CCc1c(-c2ccccc2Br)oc2c3c(cc(O)c2c1=O)OC(C)(C)C=C3 | 2.6 | 0.33 | 4.22 | 3.41% |  |  |  |  |  |  |
| CC(C)Oc1ccc2c(=O)c(-c3ccccc3)coc2c1 [IPRIFLAVONE] |  |  |  | 4.09 - 17.3% |  |  |  |  |  | Active |
| CC1(C)C=Cc2c(cc(O)c3c(=O)c(CCC(C)(O)c4ccc(F)cc4)c(-c4ccccc4Br)oc23)O1 (centres undefined) | 17.2 | 7.88 | 6.42 | 4.55% |  |  | Active |  | Active |  |
